# Test system: patients with NSCLC
# Experiment: POPLAR phase II trial: atezolizumab vs docetaxel, efficacy by PD-L1, CXCL9, IFNG expression level
# Assay type: in vivo, human
# Protocol: An RNA-based molecular assay was used to evaluate the association between clinical response to treatment with atezolizumab (MPDL3280A), an anti-PD-L1 antibody, and expression levels of PD-L1, CXCL9, and IFNG in individuals with NSCLC enrolled in a phase II clinical trial in which atezolizumab was administered as a monotherapy.
# The POPLAR (Clinical Trial ID No.: NCT01903993) patient population evaluated for PD-L1, CXCL9, and IFNG expression levels consisted of 215 patients. Patients were eligible for enrollment in the POPLAR study if they had locally advanced or metastatic (e.g., stage IIIB, stage IV, or recurrent) NSCLC; disease progression during or following treatment with a prior platinum-containing regimen for locally advanced, unresectable/inoperable, or metastatic NSCLC, or disease recurrence within 6 months of treatment with a platinum-based adjuvant/neoadjuvant regimen; measurable disease, as defined by RECIST v1.1; and an ECOG performance status of 0 or 1. Participants were randomized to receive either atezolizumab at a dose of 1200 mg intravenously every three weeks or docetaxel 75 mg per square meter (mg/m^2) intravenously every three weeks. Treatment with atezolizumab could be continued as long as participants were experiencing clinical benefit, i.e., in the absence of unacceptable toxicity or symptomatic deterioration attributed to disease progression.
# To evaluate whether PD-L1, CXCL9, and IFNG gene expression status was associated with patient response to atezolizumab (MPDL3280A) treatment, the gene expression level of PD-L1, CXCL9, and IFNG was assessed in pre-treatment, FFPE tumor samples obtained from each patient. RNA was isolated from the FFPE tumor sections and PD-L1, CXCL9, and IFNG gene expression was measured using PCR-based methodology (Fluidigm). The expression level, expressed as the cycle threshold (Ct) for each of PD-L1, CXCL9, and IFNG was normalized to the expression level of a housekeeping gene (e.g., TMEM55B). The normalized expression value, dCt, where dCt(target gene)=Ct(control gene)−Ct(target gene) for each of PD-L1, CXCL9, and IFNG, was then averaged to obtain a single numerical averaged dCt value for the aggregate expression level of PD-L1, CXCL9, and IFNG.
# Tumor specimens obtained from the patients were categorized into different high or low expression level subgroups based on the immune-score expression level of PD-L1, CXCL9, and IFNG relative to a cut-off value for a given percentile (25th, 50th, or 75th percentile) of the population. The 25th percentile was defined by the immune-score expression levels of PD-L1, CXCL9, and IFNG greater than or equal to 25% of all immune-score expression levels of PD-L1, CXCL9, and IFNG in the population analyzed. The 50th percentile was defined by the immune-score expression levels of PD-L1, CXCL9, and IFNG greater than or equal to 50% of all immune-score expression levels of PD-L1, CXCL9, and IFNG in the population analyzed. The 75th percentile was defined by the immune-score expression levels of PD-L1, CXCL9, and IFNG greater than or equal to 75% of all immune-score expression levels of PD-L1, CXCL9, and IFNG in the population analyzed. […]
# The OS, PFS, and ORR endpoints from the POPLAR clinical trial were evaluated against the PD-L1, CXCL9, and IFNG expression level cut-offs defined herein (e.g., the 25%, 50%, and 75% expression level quartiles). […]
structure (smiles),measurement,setting,value
CC(=O)O[C@@]12CO[C@@H]1C[C@H](O)[C@@]1(C)C(=O)[C@H](O)C3=C(C)[C@@H](OC(=O)[C@H](O)[C@@H](NC(=O)OC(C)(C)C)c4ccccc4)C[C@@](O)([C@@H](OC(=O)c4ccccc4)[C@H]21)C3(C)C [docetaxel],ORR,BEP (n = 113 vs 112),8%
same,ORR,ITT (n = 144 vs 143),15% vs 15%
same,ORR,"PD-L1, CXCL9, IFNG expression level percentile ≥25%",13%
same,ORR,"PD-L1, CXCL9, IFNG expression level percentile ≥50% (median)",15%
same,ORR,"PD-L1, CXCL9, IFNG expression level percentile ≥75%",13%

# — patent US20200157635A1, “DIAGNOSTIC AND THERAPEUTIC METHODS FOR CANCER” (Genentech, Inc., priority 2017, published 2020)
